This note sets out measurements from PMC6864091, “A LONELY GUY protein of Bordetella pertussis with unique features is related to oxidative stress” (Scientific Reports, 2019).

The target in data set [1] is T1, BP1253 (BpLOG) (Bordetella pertussis, UniProt Q7VYQ7).
T1 construct: recombinant BP1253 with C-terminal 6x His tag (BP1253-His)
In words: SPR (Biacore T200, steady state, amine-coupled BP1253-His); cleavage also shown by TLC. It counts as binding. On the technique in general: Surface plasmon resonance follows binding to a sensor surface in real time, without labels.

The target in data set [2] is T1, BP1253 (BpLOG). The data set can be described thus: SPR (data not shown). In kind it is binding.
Data set [3] concerns the molecule itself. The data set can be described thus: SEC; analytical SEC, BEH200 column 4.6 x 300 mm, 10 mM NaH2PO4, 400 mM (NH4)2SO4 pH 6.0; samples of 0.62 mg/ml and 3 mg/ml; mass from a calibration curve of standard proteins. For orientation: In gel filtration, larger molecules generally elute earlier.

By Kd is commonly meant the concentration at which binding is half-saturated. `Nc1ncnc2c1ncn2[C@@H]1O[C@H](COP(=O)(O)O)[C@@H](O)[C@H]1O` [AMP]: binding at BP1253 (BpLOG) [1] was characterised by a dissociation constant (Kd) of 5.7 µM.
The same measure, in the same setting: the value for `Nc1nc2c(ncn2[C@@H]2O[C@H](COP(=O)(O)O)[C@@H](O)[C@H]2O)c(=O)[nH]1` [GMP] was 38.6 µM.
On BP1253 (BpLOG) [2], `Cc1cn([C@H]2C[C@H](O)[C@@H](COP(=O)(O)O)O2)c(=O)[nH]c1=O` [TMP] gave a dissociation constant (Kd) of 2400 µM.
For the molecule `O=c1ccn([C@@H]2O[C@H](COP(=O)(O)O)[C@@H](O)[C@H]2O)c(=O)[nH]1` [UMP], the dissociation constant (Kd) on BP1253 (BpLOG) [2] came out at 6100 µM.

B1: BP1253 (enzyme, Bordetella pertussis, UniProt Q7VYQ7 1-209, looked up)
chain: MSEIKTAAEKLADIGPAVSMFGSARISRESPYYETCAAISAALAGAGFAIIAGGGPGIMEAANKGAFEAGGTSVGLNISLPHEAHNNEYQTISLSFEYFYSRKATFFMHSMAYVAMPGGFGTLDELFEALTLIQTGKVPPAPIVLVGSEFWHGLVDWLGEQLLANGMIAAHDLNLFIIEDDPAKVVRKVVEFHDKQGRTDSQYAPSLPA
notes: also called BpLOG; BP1253-His
One may read the stoichiometry N as a count of units in the complex or per binding partner. Consider B1, for which the “stoichiometry N” value in data set [3] was determined as 2.
